Measured values published in US7045343B2, “Sterilization indicator test packs” (3M Innovative Properties Company, priority 1998, dated 2006).

How the values were obtained:
[1] = tested on: Bacillus stearothermophilus spores; assay: Spore outgrowth (color change) of indicators after hydrogen peroxide plasma sterilization; assay type: cell-based; details: 1–22 min diffusion
Procedure: (§1) Sterilization indicators for Examples 6–9 were prepared as described above with the exception that closure member 22 of the sterilization indicator was constructed of TYVEK™ high-density polyethylene fiber material, commercially available from E.I. du Pont de Nemours and Co., Wilmington, Del.
(§2) Sterilization indicators were made as described above with spores that had been coated with each of the chemicals and concentrations listed in Table 6. The indicators were placed in instrument trays and exposed to a hydrogen peroxide plasma sterilization procedure at 45–55° C. in a STERRAD™ 100SI GMP Sterilizer, obtained from Advanced Sterilization Products Co., Irvine, Calif. During the sterilization procedure a vacuum was drawn in the sterilization chamber for 5–6 minutes until the pressure was reduced to 300 mTorr. A 1.8 ml aliquot of an aqueous solution of 58–60% hydrogen peroxide was then injected into the sterilization chamber over a period of about 6 minutes, yielding an empty chamber concentration of […] hydrogen peroxide, and hydrogen peroxide vapor was allowed to diffuse throughout the chamber for 1–22 minutes at 6–10 Torr. A vacuum was then drawn, reducing the pressure to 500 mTorr and removing all detectable hydrogen peroxide vapor from the chamber.
(§3) After exposure to the sterilization procedure, the indicators were removed from the sterilizer and the inner containers containing the enzyme substrate and nutrient medium were crushed. The indicators were then incubated at 60° C. and examined for fluorescence every hour for 5 hours using a 3M™ ATTEST™ Model 190 Rapid Autoreader, commercially available from 3M Company, St. Paul, Minn. Additionally, spore growth, as indicated by a color change from purple to yellow, was determined visually after 168 hours of incubation.
(§4) The number of growth positive indicators detected after 168 hours of incubation is recorded in Table 6.
as §2, with “7.” for “6.”
as §2, with “8.” for “6.”, “chamber. […]” for “chamber.”

[2] = tested on: enzyme associated with Bacillus stearothermophilus spores; assay: Rapid enzyme fluorescence readout of dual rapid readout indicators after prevacuum steam sterilization; assay type: biochemical; details: 4-pulse prevacuum steam 121° C.
Outline: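 Bacillus stearothermophilus ATCC 7953 spores were coated with a sterilant-resistant chemical solution and pipetted onto paper strips at about 1×10^6 spores per strip. Each strip sat in a dual rapid readout indicator beside a crushable inner container of nutrient medium holding 4-methylumbelliferyl-alpha-D-glucoside at pH 7.6. Indicators went through a 4-pulse prevacuum steam cycle at 121° C, were activated, incubated at 60° C, and read for fluorescence on a 3M ATTEST Model 190 Rapid Autoreader.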

[3] = tested on: Bacillus stearothermophilus spores; assay: Spore outgrowth (color change) of indicators after prevacuum steam sterilization; assay type: cell-based; details: 4-pulse prevacuum steam 121° C.
Outline: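 Bacillus stearothermophilus ATCC 7953 spores were cleaned, mixed into a heated sterilant-resistant coating chemical solution and pipetted onto paper strips at about 1×10^6 spores per strip. The strips were dried and placed in indicators, then exposed to a 4-pulse prevacuum steam cycle at 121° C. After exposure the media ampoule was crushed, and growth was judged visually as a purple-to-yellow color change after 168 hours at 60° C.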

[4] = tested on: enzyme associated with Bacillus stearothermophilus spores; assay: Rapid enzyme fluorescence readout of indicators after hydrogen peroxide plasma sterilization; assay type: biochemical; details: for FLUORESCENCE - PERCENT POSITIVE 1 HR / FLUORESCENCE - PERCENT POSITIVE 2 HR / FLUORESCENCE - PERCENT POSITIVE 3 HR / FLUORESCENCE - PERCENT POSITIVE 4 HR / FLUORESCENCE - PERCENT POSITIVE 5 HR: 1–22 min diffusion;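 on FLUORESCENCE - PERCENT POSITIVE 5 HR: percent of growth-positive indicators that were also fluorescence-positive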
Procedure: as §1, §2, §3, §4
as §2, with “7.” for “6.”
as §2, with “8.” for “6.”, “chamber. […]” for “chamber.”

[5] = Example 4, 50 mg/ml coating, 7–18 min
[6] = Example 4, 100 mg/ml coating, 7–18 min
[7] = Example 5, 50 mg/ml coating, 7–13 min
[8] = Example 5, 100 mg/ml coating, 7–13 min

Q: Which “NO. GROWTH POSITIVE 168 HR” value ([1]; Example 7, 50 mg/ml coating) does the source give for Hexaglyceryl Polyricinolate here?
A: 12

Q: And the “FLUORESCENCE - PERCENT POSITIVE 1 HR” value [2, 5]?
A: 0%

Q: What about the “FLUORESCENCE - PERCENT POSITIVE 2 HR” value [2, 5] of the same substance?
A: 13.0%

Q: And the “FLUORESCENCE - PERCENT POSITIVE 3 HR” value [2, 5]?
A: 52.2%

Q: And the “FLUORESCENCE - PERCENT POSITIVE 4 HR” value [2, 5]?
A: 56.5%

Q: And the “FLUORESCENCE - PERCENT POSITIVE 1 HR” value [2, 6]?
A: 9.7%

Q: What about the “FLUORESCENCE - PERCENT POSITIVE 2 HR” value [2, 6] of the same substance?
A: 19.4%

Q: What about the “FLUORESCENCE - PERCENT POSITIVE 3 HR” value [2, 6] of the same substance?
A: 32.3%

Q: What about the “FLUORESCENCE - PERCENT POSITIVE 4 HR” value [2, 6] of the same substance?
A: 45.2%

Q: And the “NO. GROWTH POSITIVE 168 HR” value [3, 5]?
A: 23

Q: What about the “NO. GROWTH POSITIVE 168 HR” value [3, 6] of the same substance?
A: 31

Q: What about the “FLUORESCENCE - PERCENT POSITIVE 1 HR” value ([4]; Example 7, 50 mg/ml coating) of the same substance?
A: 83.3%

Q: And the “FLUORESCENCE - PERCENT POSITIVE 2 HR” value ([4]; Example 7, 50 mg/ml coating)?
A: 91.7%

Q: What about the “FLUORESCENCE - PERCENT POSITIVE 3 HR” value ([4]; Example 7, 50 mg/ml coating) of the same substance?
A: 91.7%

Q: What about the “FLUORESCENCE - PERCENT POSITIVE 4 HR” value ([4]; Example 7, 50 mg/ml coating) of the same substance?
A: 91.7%

Q: And the “FLUORESCENCE - PERCENT POSITIVE 5 HR” value ([4]; Example 7, 50 mg/ml coating)?
A: 91.7%

Q: How did the “NO. GROWTH POSITIVE 168 HR” value ([1]; Example 6, 50 mg/ml coating) turn out when Decaglyceryl Pentaoleate was run?
A: 17

Q: What about the “FLUORESCENCE - PERCENT POSITIVE 1 HR” value [2, 5] of the same substance?
A: 0%

Q: And the “FLUORESCENCE - PERCENT POSITIVE 2 HR” value [2, 5]?
A: 0%

Q: What about the “FLUORESCENCE - PERCENT POSITIVE 3 HR” value [2, 5] of the same substance?
A: 18.8%

Q: What about the “FLUORESCENCE - PERCENT POSITIVE 4 HR” value [2, 5] of the same substance?
A: 31.3%

Q: What about the “FLUORESCENCE - PERCENT POSITIVE 1 HR” value [2, 6] of the same substance?
A: 12.5%

Q: What about the “FLUORESCENCE - PERCENT POSITIVE 2 HR” value [2, 6] of the same substance?
A: 25.0%

Q: What about the “FLUORESCENCE - PERCENT POSITIVE 3 HR” value [2, 6] of the same substance?
A: 37.5%

Q: And the “FLUORESCENCE - PERCENT POSITIVE 4 HR” value [2, 6]?
A: 45.8%

Q: What about the “NO. GROWTH POSITIVE 168 HR” value [3, 5] of the same substance?
A: 16

Q: And the “NO. GROWTH POSITIVE 168 HR” value [3, 6]?
A: 24

Q: And the “accuracy of sterilization indicators compared to indicators made with untreated spores” value ([4]; 1–3 hours after exposure)?
A: improved

Q: And the “FLUORESCENCE - PERCENT POSITIVE 1 HR” value ([4]; Example 6, 50 mg/ml coating)?
A: 82.4%

Q: And the “FLUORESCENCE - PERCENT POSITIVE 2 HR” value ([4]; Example 6, 50 mg/ml coating)?
A: 94.1%

Q: And the “FLUORESCENCE - PERCENT POSITIVE 3 HR” value ([4]; Example 6, 50 mg/ml coating)?
A: 100%

Q: And the “FLUORESCENCE - PERCENT POSITIVE 4 HR” value ([4]; Example 6, 50 mg/ml coating)?
A: 100%

Q: And the “FLUORESCENCE - PERCENT POSITIVE 5 HR” value ([4]; Example 6, 50 mg/ml coating)?
A: 100%

Q: Which “NO. GROWTH POSITIVE 168 HR” value ([1]; Example 8, 50 mg/ml coating) does the source give for Sodium POE(8) Oleyl Ether Phosphate here?
A: 0

Q: What about the “NO. GROWTH POSITIVE 168 HR” value ([1]; Example 8, 100 mg/ml coating) of the same substance?
A: 0

Q: What about the “FLUORESCENCE - PERCENT POSITIVE 1 HR” value [2, 7] of the same substance?
A: 0%

Q: And the “FLUORESCENCE - PERCENT POSITIVE 2 HR” value [2, 7]?
A: 0%

Q: What about the “FLUORESCENCE - PERCENT POSITIVE 3 HR” value [2, 7] of the same substance?
A: 0%

Q: And the “FLUORESCENCE - PERCENT POSITIVE 4 HR” value [2, 7]?
A: 0%

Q: And the “FLUORESCENCE - PERCENT POSITIVE 1 HR” value [2, 8]?
A: 0%

Q: What about the “FLUORESCENCE - PERCENT POSITIVE 2 HR” value [2, 8] of the same substance?
A: 0%

Q: What about the “FLUORESCENCE - PERCENT POSITIVE 3 HR” value [2, 8] of the same substance?
A: 0%

Q: And the “FLUORESCENCE - PERCENT POSITIVE 4 HR” value [2, 8]?
A: 0%

Q: What about the “NO. GROWTH POSITIVE 168 HR” value [3, 7] of the same substance?
A: 6

Q: And the “NO. GROWTH POSITIVE 168 HR” value [3, 8]?
A: 3

Q: What about the “FLUORESCENCE - PERCENT POSITIVE 1 HR” value ([4]; Example 8, 50 mg/ml coating) of the same substance?
A: 0%

Q: And the “FLUORESCENCE - PERCENT POSITIVE 2 HR” value ([4]; Example 8, 50 mg/ml coating)?
A: 0%

Q: What about the “FLUORESCENCE - PERCENT POSITIVE 3 HR” value ([4]; Example 8, 50 mg/ml coating) of the same substance?
A: 0%

Q: What about the “FLUORESCENCE - PERCENT POSITIVE 4 HR” value ([4]; Example 8, 50 mg/ml coating) of the same substance?
A: 0%

Q: And the “FLUORESCENCE - PERCENT POSITIVE 5 HR” value ([4]; Example 8, 50 mg/ml coating)?
A: 0%

Q: What about the “FLUORESCENCE - PERCENT POSITIVE 1 HR” value ([4]; Example 8, 100 mg/ml coating) of the same substance?
A: 0%

Q: What about the “FLUORESCENCE - PERCENT POSITIVE 2 HR” value ([4]; Example 8, 100 mg/ml coating) of the same substance?
A: 0%

Q: What about the “FLUORESCENCE - PERCENT POSITIVE 3 HR” value ([4]; Example 8, 100 mg/ml coating) of the same substance?
A: 0%

Q: What about the “FLUORESCENCE - PERCENT POSITIVE 4 HR” value ([4]; Example 8, 100 mg/ml coating) of the same substance?
A: 0%

Q: What about the “FLUORESCENCE - PERCENT POSITIVE 5 HR” value ([4]; Example 8, 100 mg/ml coating) of the same substance?
A: 0%
